Experimental data from article PMC3106281 (Analytical biochemistry, 2010).
In brackets after ≈: the same amount, converted by molar mass. Read-outs that look alike come from different tables or passages of the source. Bridge positions count the residues as written; N and C are the ends. Square brackets hold non-standard residues; d marks the D form. Peptide text beside a SMILES is read from it. * marks the point of attachment. X1 = CC[C@H](C)CCCCC(=O)*; Dab = NCC[C@H](N)C(=O)O

What was measured:
[1] = test system: colistin-resistant K. pneumoniae clinical isolate; format: cell-based, Klebsiella pneumoniae; conditions: broth microdilution
[2] = test system: A. baumannii ATCC 19606; format: cell-based, Acinetobacter baumannii; conditions: broth microdilution
[3] = test system: K. pneumoniae ATCC 13883; format: cell-based, Klebsiella pneumoniae; conditions: broth microdilution
[4] = test system: colistin-resistant P. aeruginosa clinical isolate; format: cell-based, Pseudomonas aeruginosa; conditions: broth microdilution, two replicates
[5] = test system: colistin-resistant A. baumannii clinical isolate; format: cell-based, Acinetobacter baumannii; conditions: broth microdilution
[6] = Isothermal titration calorimetry; format: binding, Escherichia coli; conditions: ITC, 37°C
[7] = ref [52], cited from earlier work
[8] = above the Tc; ref [54]; cited from earlier work
[9] = test system: bacteria; conditions: ref [47]; [48]; cited from earlier work
[10] = Fluorometric assay, purified LPS; format: binding; conditions: E. coli, K. pneumoniae, S. enterica (and P. aeruginosa) LPS

CC[C@H](C)CCCCC(=O)N[C@@H](CCN)C(=O)N[C@H](C(=O)N[C@@H](CCN)C(=O)N[C@H]1CCNC(=O)[C@H]([C@@H](C)O)NC(=O)[C@H](CCN)NC(=O)[C@H](CCN)NC(=O)[C@H](CC(C)C)NC(=O)[C@@H](CC(C)C)NC(=O)[C@H](CCN)NC1=O)[C@@H](C)O [Colistin, colistin] (X1-[Dab]T[Dab][Dab][Dab][dL]L[Dab][Dab]T; lactam 4-C (inferred); N-terminus assumed)
MIC [1]: > 128 mg/L | MIC [2]: 1 mg/L (≈ 0.855 µM) | MIC [3]: 1 mg/L (≈ 0.855 µM) | MIC [4]: > 128 mg/L | MIC [5]: 16 mg/L (≈ 13.7 µM)

polymyxin B [PmB]
Absolute peptide concentration in the cell where saturation began ([6]; LPS 125 μM, 14th injection (PmB), 18th injection (DPmB3)): 98 µM | ΔH1 ([6]; first set of sites, 20 mM HEPES pH 7.0, two-site model): -6.28 ± 1.7 kJ/mol | ΔS1 ([6]; first set of sites, calculated from ΔH and ΔG0): 28.9 kJ/mol | ΔH2 ([6]; second set of sites, 20 mM HEPES pH 7.0, two-site model): -50.2 ± 15.5 kJ/mol | ΔS2 ([6]; second set of sites, calculated from ΔH and ΔG0): -7.53 kJ/mol | Calorimetric reaction with LPS ([7]; temperatures ≤30°C, below Tc of LPS): endothermic | Calorimetric reaction with LPS ([7]; ≥35°C, above phase transition temperature, [53]): exothermic | Calorimetric reaction with LPS [8]: endothermic

polymyxin B nonapeptide [PBN]
Antibacterial activity [9]: negligible antibacterial activity | Binding affinity for isolated LPS, comparison in words [10]: lowest binding affinity for LPS
